Test results from patent US6849659B2, “Pharmaceutical composition containing citalopram” (H. Lundbeck A/S, priority 2000, dated 2005).
Structures can show the parent of a compound that is named as a salt.

Assay: Particle size distribution (Sympatec Helos laser diffraction)
Format: physicochemical
Conditions: for Particle size distribution, quantile 5% / Particle size distribution, quantile 10% / Particle size distribution, quantile 50% (median particle size) / Particle size distribution, quantile 90% / Particle size distribution, quantile 95%: Sympatec Helos
From the text: As used herein, “particle size distribution” means the distribution of equivalent spherical diameters as determined by laser diffraction at 1 bar dispersive pressure in a Sympatec Helos equipment. “Median particle size”, correspondingly, means the median of said particle size distribution.

Structure (SMILES)	Particle size distribution, quantile 5% [μm]	Particle size distribution, quantile 10% [μm]	Particle size distribution, quantile 50% (median particle size) [μm]	Particle size distribution, quantile 90% [μm]	Particle size distribution, quantile 95% [μm]	Particle size (product of the process used for the preparation of citalopram hydrobromide (background))
Br.CN(C)CCCC1(c2ccc(F)cc2)OCc2cc(C#N)ccc21 (single isomer, unassigned) [Example 1, Citalopram hydrobromide]	8.23	16.54	96.87	342.89	465.43	–
Br.CN(C)CCCC1(c2ccc(F)cc2)OCc2cc(C#N)ccc21 (single isomer, unassigned) [Example 2, Citalopram hydrobromide]	6.67	11.97	52.70	352.23	549.42	–
Br.CN(C)CCCC1(c2ccc(F)cc2)OCc2cc(C#N)ccc21 (single isomer, unassigned) [Example 3, Citalopram hydrobromide]	0.82	1.19	14.04	72.27	96.96	–
CN(C)CCCC1(c2ccc(F)cc2)OCc2cc(C#N)ccc21 (stereo not shown) [citalopram hydrobromide, reference compound]	–	–	–	–	–	2-20 μm
